US20030055106A1, “Therapeutic uses of peroxometallic compounds” (priority 1999, published 2003)

Experiments:
[1] = tested on: endothelial cells having invaded Matrigel plugs; assay: In vivo s.c. Matrigel plug assay; parameters: species or system C57B1/6N female mice; details: daily i.p. administration of 10 μg/mice or higher doses, day 1 to day 7
Protocol: FIG. 5: bpV(phen) inhibits angiogenesis in vivo in the s.c. Matrigel assay. Graph showing the results of an experiment expressed as the number of cells that migrated in three microscopic fields for each s.c. Matrigel plug. Fields were equidistant from the edge of the plug. […] (2) Four mice that received daily administration of 10 μg bpV(phen) during the 7 days post-implantation. (3) Four mice that received daily administration of 50 μg bpV(phen) during the 7 days post-implantation. (4) Four mice that received daily administration of 100 μg bpv(phen) during the 7 days post-implantation. (5) Four mice that received daily administration of PBS during the 7 days post-implantation.
This assay was performed as previously described (107). Briefly, Matrigel (liquid at 4° C.) was mixed with 200 ng/ml ECGS and injected s.c. into four C57B1/6N female mice (1 ml/mice). After injection, the Matrigel polymerized to form a plug. After 7 days, the animals were sacrified, and the Matrigel plugs were removed and fixed in 10% neutral-buffered formalin solution (Sigma Chemical Co.) and embedded in paraffin. Histological sections were stained with Masson's trichrome and angiogenesis was scored by counting the number of cells that migrated in three microscopic fields for each s.c. Matrigel plug.
Experiments were performed to determine whether bpV(phen) inhibits vessel formation in vivo. […]

[2] = tested on: HUVECs; assay: HUVEC differentiation and organization into tubular-like structures in fibrin matrix; assay type: cell-based, Human; details: 21 days in culture
Protocol: Alternatively, HUVECs cultured in a fibrin matrix can form 3-dimensional tubular-like structures in the presence of serum (103). This assay was performed in the presence of either bpV(phen), bpv(pic) or vanadate to assess the influence of each one of these compounds on HUVEC differentiation and organization (Table 1). HUVECs were seeded on the bottom of gelatin-coated wells at high density to provide a confluent monolayer at 48 hours.
Then, 50 000 HUVECs/ml were embedded in fibrinogen solution prior to polymerization. The fibrin matrix was covered with culture medium containing the molecule to be tested, while culture medium without any of these molecules served as controls. Cell behavior was observed periodically by phase contrast microscopy.

[3] = tested on: vitelline membrane of chick embryos; assay: Embryonic vascularization test (EVT) ex ovo; assay type: in vivo
Text: FIG. 2: A and B show an anti-angiogenic response to bpV(phen), orthovanadate (Van) and protamine (Prot) using a vascularization test on the vitelline membrane of chick embryos. Each point represents a minimum of 15 embryos (15 to 28).
The normal development of a chick embryo involves the formation of an external vascular system which is located in the vitelline membrane and which carries nutrients from the vitellus (yolk of the egg) to the developing embryo. When placed onto the vitelline membrane, anti-angiogenic substances can inhibit blood vessel development in the vitelline membrane. To facilitate access to the vitelline membrane, chick embryos were transferred to a sterile culture box (Petri dish) and placed in a humidity- and temperature-controlled incubator. Embryos could then develop in this ex ovo condition for several days.
An aliquot of the tested compound was mixed with a methylcellulose solution and allowed to air-dry into thin discs. Methylcellulose forms an inert matrix from which the tested compound can diffuse slowly. Methylcellulose discs containing the tested compound were placed on the external border of the vascular perimeter of the vitelline membrane where the angiogenic process was still active.
The effects of the discs containing the tested compound on proximal vascular development were, in all cases, compared with those of discs containing control buffer. The discs were placed on the embryos' vitelline membrane on Day 0 or Day 1 of the ex ovo growth process; at this point, only beginnings of the main blood vessels are invading the vitellus. The embryos were then put in culture conditions until vascularization was assessed (approximately 24 h). Control buffer- and compound-containing discs were in all cases added simultaneously on the vitelline membrane of the same embryo. Both discs were arranged in a symmetrical fashion with respect to the cephalo-caudal axis of the embryo in order to minimize inter-individual variations when comparing the tested compounds with controls.
[…] After one day in culture, the level of vascularization in the area covered by the discs was graded by a pair of scientists in the usual blind fashion. To facilitate the location of the discs, black O-rings were placed around them just after their placement on the vitelline membrane. The evaluation scale for the EVTs was based on two different scoring systems.
Blood vessel formation was assessed in a blind fashion. The areas of the vitelline membranes that lay beneath the methylcellulose discs were scored for the degree of vascularization, using two scoring systems (“N/+” or “1-2-3”). The following selection criteria were used:
A score of “N” for “Normal” was attributed when all the following conditions were met:
Blood vessels in the evaluated area grew along their path with no abnormal deviation. Collateral branching density was normal and the growth path of the lateral branches was also normal.
A score of “+” was attributed when at least one of the following conditions was met:
1-2-3 Grading Scale System:
A score of 3 was attributed when the following conditions were met:
A score of 2 was attributed when at least one of the following conditions was met:
A score of 1 was attributed when at least one of the following conditions was met:
A score of 3 meant that blood vessel development was normal whereas a score of 1 indicated the greatest degree of angiostatic activity.

O.O.O.OO.OO.[K+].[OH-].[V].c1cnc2c(c1)ccc1cccnc12 [bpV(phen), potassium bisperoxo(1,10-phenanthroline)oxovanadate]
number of endothelial cells having invaded Matrigel plugs [1]: decreased by half
structures observed by phase contrast microscopy ([2]; 1 μM): cord-like structures (or cords), tube-like structures (or tubes) and stellate structures (or Stell.struct.) were observed
structures observed by phase contrast microscopy ([2]; 2 and 3.5 μM): fragmented cord-like structures were apparent
Anti-angio.activity 1 to 3 (1: no angiogenesis; 3: normal angiogenesis) ([3]; 0.001 μg, Assay 1): 2.7
Anti-angio.activity % (proportion of embryos showing an anti-angiogenic response) ([3]; 0.001 μg, Assay 1): 12%
Anti-angio.activity 1 to 3 (1: no angiogenesis; 3: normal angiogenesis) ([3]; 0.001 μg, Assay 2): 2.4
Anti-angio.activity % (proportion of embryos showing an anti-angiogenic response) ([3]; 0.001 μg, Assay 2): 20%
Anti-angio.activity 1 to 3 (1: no angiogenesis; 3: normal angiogenesis) ([3]; 0.001 μg, Assay 5): 2.6
Anti-angio.activity % (proportion of embryos showing an anti-angiogenic response) ([3]; 0.001 μg, Assay 5): 16%
Anti-angio.activity 1 to 3 (1: no angiogenesis; 3: normal angiogenesis) ([3]; 0.01 μg, Assay 1): 2.3
Anti-angio.activity % (proportion of embryos showing an anti-angiogenic response) ([3]; 0.01 μg, Assay 1): 31%
Anti-angio.activity 1 to 3 (1: no angiogenesis; 3: normal angiogenesis) ([3]; 0.01 μg, Assay 2): 2.5
Anti-angio.activity % (proportion of embryos showing an anti-angiogenic response) ([3]; 0.01 μg, Assay 2): 19%
Anti-angio.activity 1 to 3 (1: no angiogenesis; 3: normal angiogenesis) ([3]; 0.01 μg, Assay 5): 2.4
Anti-angio.activity % (proportion of embryos showing an anti-angiogenic response) ([3]; 0.01 μg, Assay 5): 25%
Anti-angio.activity 1 to 3 (1: no angiogenesis; 3: normal angiogenesis) ([3]; 0.1 μg, Assay 1): 1.8
Anti-angio.activity % (proportion of embryos showing an anti-angiogenic response) ([3]; 0.1 μg, Assay 1): 61%
Anti-angio.activity 1 to 3 (1: no angiogenesis; 3: normal angiogenesis) ([3]; 0.1 μg, Assay 2): 2.2
Anti-angio.activity % (proportion of embryos showing an anti-angiogenic response) ([3]; 0.1 μg, Assay 2): 45%
Anti-angio.activity 1 to 3 (1: no angiogenesis; 3: normal angiogenesis) ([3]; 0.1 μg, Assay 5): 2.0
Anti-angio.activity % (proportion of embryos showing an anti-angiogenic response) ([3]; 0.1 μg, Assay 5): 53%
Anti-angio.activity 1 to 3 (1: no angiogenesis; 3: normal angiogenesis) ([3]; 1 μg, Assay 1): 1.6
Anti-angio.activity % (proportion of embryos showing an anti-angiogenic response) ([3]; 1 μg, Assay 1): 86%
Anti-angio.activity 1 to 3 (1: no angiogenesis; 3: normal angiogenesis) ([3]; 1 μg, Assay 2): 1.1
Anti-angio.activity % (proportion of embryos showing an anti-angiogenic response) ([3]; 1 μg, Assay 2): 100%
Anti-angio.activity 1 to 3 (1: no angiogenesis; 3: normal angiogenesis) ([3]; 1 μg, Assay 4): 1.0
Anti-angio.activity % (proportion of embryos showing an anti-angiogenic response) ([3]; 1 μg, Assay 4): 96%
Anti-angio.activity 1 to 3 (1: no angiogenesis; 3: normal angiogenesis) ([3]; 1 μg, Assay 5): 1.2
Anti-angio.activity % (proportion of embryos showing an anti-angiogenic response) ([3]; 1 μg, Assay 5): 94%
approximate IC50, neovascularization (regardless of the scoring system) ([3]; per methylcellulose disc): ~0.1 µg
